The record followed here is paper PMC3470887, “Protegrin-1 Inhibits Dengue NS2B-NS3 Serine Protease and Viral Replication in MK2 Cells” (Journal of Biomedicine and Biotechnology, 2012).

For data set [1], the system named is DENV-2. Description: DENV-2 replication in infected MK2 cells, viral RNA by real-time PCR. The conditions noted are these: inferred from lower inhibition percentage of low concentrations at 48 and 72 hrs versus 24 hrs. It is filed as cell-based, Dengue virus serotype 2. Here is the method:
The MK2 cell lines were grown in a 24-well tissue culture plate (1 × 10^5 cells/well), incubated 24 hrs under optimal conditions (37°C and 5% CO2). DENV-2 was added to the wells (MOI of 2) followed by incubation for 1 hr with gentle shaking every 10 min for optimal virus to cell contact. The virus supernatant was removed, and the cells were washed twice with fresh serum free DMEM media to remove residual virus. New complete DMEM media containing 2.5, 7.5 and 12.5 μM of PG-1 were added and the cultures were incubated for 24, 48 and 72 hrs. Afterwards, cellular supernatants were collected and stored at −80°C for viral quantification by real-time PCR.
For quantification of DENV-2 copies, the standard curve was generated by 10-fold serial dilution of known copies of DENV-2 RNA. Viral RNA was extracted from culture supernatant using QIAmp viral RNA minikit (QIAGEN, Germany) according to the manufacturer's instructions. A fragment located at the 5′UTR region of the virus genome was used to generate the primers. One-step RT-PCR using SyBr Green Master Kit (Qiagen, Germany) was used to conduct absolute quantification using ABI7300 machine from Applied Biosystems (Foster City, CA). […] Results were analyzed using Sequence Detection Software Version 1.3 (Applied Biosystems, Foster City, CA, USA).
(Quantitative PCR measures a nucleic acid by following its amplification.)

Data set [2] addresses dengue NS2B-NS3pro (Dengue virus type 2, UniProt P14340). The experiment in a line: Dengue NS2B-NS3pro protease inhibition assay (fluorogenic substrate Boc-Gly-Arg-Arg-MCA). In kind it is biochemical, DENV-2. Here is the method:
The bioassay used in this study was modified from the method published by Kiat and coworkers. Reaction mixtures with total volume of 200 μL were prepared. These reaction mixtures consisted of 100 μM fluorogenic peptide substrate (Boc-Gly-Arg-Arg-MCA), 2 μM NS2B-NS3pro complex, with or without PG-1 of varying concentrations, buffered at pH 8.5 with 200 mM Tris-HCl. The PG-1 was initially prepared in Tris-HCl buffer and assayed at five different concentrations. The reaction mixtures without fluorogenic peptide substrate were firstly incubated at 37°Cfor 30 minutes. Subsequently, the substrate was added and the mixture was further incubated at the same temperature for 30 minutes. Triplicates were performed for all measurements and the readings were taken using Tecan Infinite M200 Pro fluorescence spectrophotometer. Substrate cleavage was optimized at the emission at 440 nm upon excitation at 350 nm. The readings were then used for calculating Km values of peptide substrate and IC50 values of peptide inhibitors using nonlinear regression models in GraphPad Prism 5.01 software.

Chain of dengue NS2B-NS3pro (P14340 1394-1440 limits assumed): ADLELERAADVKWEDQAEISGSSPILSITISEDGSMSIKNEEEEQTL
Chain of dengue NS2B-NS3pro (P14340 1476-1660 limits assumed): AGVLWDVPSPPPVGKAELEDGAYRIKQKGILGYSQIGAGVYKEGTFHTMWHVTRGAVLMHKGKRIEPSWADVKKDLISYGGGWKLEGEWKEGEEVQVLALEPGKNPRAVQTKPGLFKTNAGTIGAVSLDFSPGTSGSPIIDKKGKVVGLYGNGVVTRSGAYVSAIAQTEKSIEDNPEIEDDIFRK

What is called IC50 is the concentration at which inhibition is half-maximal. The inhibition is the share of the control response that was lost under treatment. By Ki is commonly meant the dissociation constant of the complex between target and ligand, obtained from inhibition or displacement. For the molecule `CC(C)C[C@H](NC(=O)[C@H](CCCNC(=N)N)NC(=O)CNC(=O)CNC(=O)[C@@H](N)CCCNC(=N)N)C(=O)N[C@H]1CSSC[C@@H](C(=O)N[C@H](C(=O)NCC(=O)N[C@@H](CCCNC(=N)N)C(N)=O)C(C)C)NC(=O)[C@H](C(C)C)NC(=O)[C@@H]2CSSC[C@H](NC(=O)[C@H](Cc3ccc(O)cc3)NC1=O)C(=O)N[C@@H](CCCNC(=N)N)C(=O)N[C@@H](CCCNC(=N)N)C(=O)N[C@@H](CCCNC(=N)N)C(=O)N[C@@H](Cc1ccccc1)C(=O)N2` [PG-1], in data set [1], the “PG-1 stability in culture media” value is recorded as “declined with longer incubation in culture media”. The IC50 in data set [2] (2 μM NS2B-NS3pro, 100 μM Boc-Gly-Arg-Arg-MCA, 200 mM Tris-HCl pH 8.5, 37°C, 30 min pre-incubation + 30 min, triplicates, nonlinear regression GraphPad Prism) is 11.7 µM. In addition, 40 µM produced 95.7% inhibition in data set [2] (PG-1 at 40 μM, assayed at five concentrations, 10–160 μM). The Ki in data set [2] (kinetic assay, PG-1 0, 2.5, 5, 10 and 20 μM, Michaelis-Menten nonlinear regression, GraphPad Prism, read-out: Ki (inhibition constant)) is 5.85 µM.
